Test results from patent US20250333418A1, “PURINE COMPOUNDS, COMPOSITIONS COMPRISING THEM AND USES THEREOF” (Novo Nordisk A/S, priority 2022, published 2025).

Experiments:
human CB1 receptor [1] = biological target: T1, human CB1 receptor (Homo sapiens, UniProt P21554); test: bioSensAll β-arrestin2 plasma membrane translocation (+GRK2) BRET biosensor assay in HEK293 cells transfected with hCB1; test compound added before EC75-80 of agonist CP55,940 (100 nM); type: cell-based; settings: βArrestin2 (+GRK2) BRET biosensor, vs CP55,940 100 nM (EC75-80), read-out: CB1 wt βarr2 IC50
T1 construct: expressed in transfected cells; host or cells: HEK293
T1 sequence (P21554 whole entry): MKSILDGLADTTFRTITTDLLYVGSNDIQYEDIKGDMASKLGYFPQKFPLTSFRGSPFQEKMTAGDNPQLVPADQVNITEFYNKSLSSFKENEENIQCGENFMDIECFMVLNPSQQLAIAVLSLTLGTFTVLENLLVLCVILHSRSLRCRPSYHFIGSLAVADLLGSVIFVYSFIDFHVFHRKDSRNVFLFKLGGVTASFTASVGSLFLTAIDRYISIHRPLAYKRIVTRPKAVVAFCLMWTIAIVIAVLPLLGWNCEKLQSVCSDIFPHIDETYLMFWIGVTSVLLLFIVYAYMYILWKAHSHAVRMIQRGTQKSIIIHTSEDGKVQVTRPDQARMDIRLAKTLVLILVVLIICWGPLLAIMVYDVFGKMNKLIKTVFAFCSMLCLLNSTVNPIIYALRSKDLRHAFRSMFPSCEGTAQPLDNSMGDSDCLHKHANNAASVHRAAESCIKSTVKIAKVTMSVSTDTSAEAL
Summary of the method: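 HEK293 cells co-transfected with hCB1 and β-arrestin2 PM-translocation BRET biosensor (+GRK2); 48 h post-transfection in HBSS, test compound (0–600 nM, 12 points) added 3–5 min before CP55,940 at 100 nM (EC75-80). Overnight incubation at 37 °C; BRET (515/400 nm) read after 2 µM e-coelenterazine Prolume Purple, standardized to controls.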

human CB1 receptor [2] = biological target: T1, human CB1 receptor; test: bioSensAll GAPL-Gi2 BRET biosensor assay in HEK293 cells transfected with hCB1; test compound added before EC75-80 of agonist CP55,940 (0.1 nM); type: cell-based; settings: vs CP55,940 0.1 nM (EC75-80), read-out: CB1 wt Gi2 IC50
Summary of the method: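 Test compounds at 12 doses up to 600 nM preceded a 0.1 nM CP55,940 challenge in hCB1/GAPL-Gi2 HEK293 cells. After overnight 37° C incubation, methoxy e-coelenterazine (2 µM final) was added and the 515/400 nm BRET ratio normalized to positive and negative controls.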

Row | SMILES | IC50 (human CB1 receptor [1]) [nM] | IC50 (human CB1 receptor [2]) [nM]
1 | C[C@@H](O)COc1nc(N2CCC(C)(C(N)=O)CC2)c2nc(-c3ccccc3Cl)n(-c3ccc(Cl)cc3)c2n1 [Compound 79, 1-[8-(2-chlorophenyl)-9-(4-chlorophenyl)-2-[(2R)-2-hydroxypropoxy]purin-6-yl]-4-methyl-piperidine-4-carboxamide] | 4.37 | 0.868
2 | C[C@H](O)COc1nc(N2CCC(C)(C(N)=O)CC2)c2nc(-c3ccccc3Cl)n(-c3ccc(Cl)cc3)c2n1 [Compound 80, 1-[8-(2-chlorophenyl)-9-(4-chlorophenyl)-2-[(2S)-2-hydroxypropoxy]purin-6-yl]-4-methyl-pi-peridine-4-carboxamide] | 5.09 | 1.02
3 | C[C@H](O)CNc1nc(N2CCC(C)(C(N)=O)CC2)c2nc(-c3ccccc3Cl)n(-c3ccc(Cl)cc3)c2n1 [Compound 84, 1-[8-(2-chlorophenyl)-9-(4-chlorophenyl)-2-[[(2S)-2-hydroxypropyl]amino]purin-6-yl]-4-methyl-piperidine-4-carboxamide] | 11.7 | 2.1
4 | CC(C)(O)CNc1nc(N2CCC(C)(C(N)=O)CC2)c2nc(-c3ccccc3Cl)n(-c3ccc(Cl)cc3)c2n1 [Compound 85, 1-[8-(2-chlorophenyl)-9-(4-chlorophenyl)-2-[(2-hydroxy-2-methyl-propyl)amino]purin-6-yl]-4-methyl-piperidine-4-carboxamide] | 6.76 | 0.754
5 | CC(C)Oc1nc(OCC(C)(C)O)nc2c1nc(-c1ccccc1Cl)n2-c1ccc(Cl)cc1 [Compound 86] | 9.49 | 1.38
6 | CC(C)Nc1nc(OCC(C)(C)O)nc2c1nc(-c1ccccc1Cl)n2-c1ccc(Cl)cc1 [Compound 87] | 21.6 | 3.1
7 | CC(C)C(=O)Nc1nc(N2CCC(C)(C#N)CC2)c2nc(-c3ccccc3Cl)n(-c3ccc(Cl)cc3)c2n1 [Compound 89, N-[8-(2-chlorophenyl)-9-(4-chlorophenyl)-6-(4-cyano-4-methyl-1-piperidyl)purin-2-yl]-2-methyl-propanamide] | 2.31 | 0.789
8 | CCN(CCO)c1nc(N2CCC(C)(C(N)=O)CC2)c2nc(-c3ccccc3Cl)n(-c3ccc(Cl)cc3)c2n1 [Compound 90, 1-[8-(2-chlorophenyl)-9-(4-chlorophenyl)-2-[ethyl(2-hydroxyethyl)amino]purin-6-yl]-4-methyl-piperidine-4-carboxamide] | 1.36 | 0.52
9 | CC(C)N1CCN(c2nc(OCC(C)(C)O)nc3c2nc(-c2ccccc2Cl)n3-c2ccc(Cl)cc2)CC1 [Compound 96] | 5.68 | 3.43
10 | CN(CCO)c1nc(OCC(C)(C)O)nc2c1nc(-c1ccccc1Cl)n2-c1ccc(Cl)cc1 [Compound 97] | 123 | 25.8
11 | CCOc1nc(OCC(C)(C)O)nc2c1nc(-c1ccccc1Cl)n2-c1ccc(Cl)cc1 [Compound 99] | 36.2 | 4.51
12 | CC(C)(O)COc1nc(NCC(N)=O)c2nc(-c3ccccc3Cl)n(-c3ccc(Cl)cc3)c2n1 [Compound 100] | > 5000 | > 5000
13 | CC(C)Oc1nc(OC[C@H](C)O)nc2c1nc(-c1ccccc1Cl)n2-c1ccc(Cl)cc1 [Compound 101] | 16 | 1.53
14 | CC(C)(O)COc1nc(N2CCC(C)(C(N)=O)CC2)c2nc(-c3cccnc3)n(-c3ccc(Cl)cc3)c2n1 [Compound 103, 1-[9-(4-chlorophenyl)-2-(2-hydroxy-2-methyl-propoxy)-8-(3-pyridyl)purin-6-yl]-4-methyl-piperidine-4-carboxamide] | > 5000 | 131
15 | Cc1ncccc1-c1nc2c(N3CCC(C)(C(N)=O)CC3)nc(OCC(C)(C)O)nc2n1-c1ccc(Cl)cc1 [Compound 104, 1-[9-(4-chlorophenyl)-2-(2-hydroxy-2-methyl-propoxy)-8-(2-methyl-3-pyridyl)purin-6-yl]-4-methyl-piperidine-4-carboxamide] | > 5000 | 48.8
16 | CC(C)(O)COc1nc(N2CCC(C)(C(N)=O)CC2)c2nc(-c3ccc(C#N)nc3)n(-c3ccc(Cl)cc3)c2n1 [Compound 109, 1-[9-(4-chlorophenyl)-8-(6-cyano-3-pyridyl)-2-(2-hydroxy-2-methyl-propoxy)purin-6-yl]-4-methyl-piperidine-4-carboxamide] | 61.5 | 13.2

Further compounds by falling IC50 (human CB1 receptor [1]), results first:

Row | IC50 (human CB1 receptor [1]) [nM] | IC50 (human CB1 receptor [2]) [nM] | SMILES
17 | 760 | 17.8 | Cc1ccncc1-c1nc2c(N3CCC(C)(C(N)=O)CC3)nc(OCC(C)(C)O)nc2n1-c1ccc(Cl)cc1 [Compound 105, 1-[9-(4-chlorophenyl)-2-(2-hydroxy-2-methyl-propoxy)-8-(4-methyl-3-pyridyl)purin-6-yl]-4-methyl-piperidine-4-carboxamide]
18 | 72.4 | 13 | CC(C)(O)COc1nc(N2CCC(C)(C(N)=O)CC2)c2nc(-c3ccccc3Cl)n(-c3ccccc3)c2n1 [Compound 95, 1-[8-(2-chlorophenyl)-2-(2-hydroxy-2-methyl-propoxy)-9-phenyl-purin-6-yl]-4-methyl-piperidine-4-carboxamide]
19 | 53.7 | 18.4 | CC(C)(O)CNc1nc(N2CCC(C)(C(N)=O)CC2)c2nc(-c3ccc(C#N)nc3)n(-c3ccc(Cl)cc3)c2n1 [Compound 111, 1-[9-(4-chlorophenyl)-8-(6-cyano-3-pyridyl)-2-[(2-hydroxy-2-methyl-propyl)amino]purin-6-yl]-4-methyl-piperidine-4-carboxamide]
20 | 50.7 | 14 | CC(C)(O)COc1nc(N2CCC(C)(C(N)=O)CC2)c2nc(-c3ccc(C#N)cc3)n(-c3ccc(Cl)cc3)c2n1 [Compound 106, 1-[9-(4-chlorophenyl)-8-(4-cyanophenyl)-2-(2-hydroxy-2-methyl-propoxy)purin-6-yl]-4-methyl-piperidine-4-carboxamide]
21 | 40.1 | 50 | CN(C)CCNc1nc(N2CCC(C)(C(N)=O)CC2)c2nc(-c3ccccc3Cl)n(-c3ccc(Cl)cc3)c2n1 [Compound 102, 1-[8-(2-chlorophenyl)-9-(4-chlorophenyl)-2-[2-(dimethylamino)ethylamino]purin-6-yl]-4-methyl-piperidine-4-carboxamide]
22 | 26.2 | 3.51 | Cc1cc(C#N)ncc1-c1nc2c(N3CCC(C)(C(N)=O)CC3)nc(OCC(C)(C)O)nc2n1-c1ccc(Cl)cc1 [Compound 108, 1-[9-(4-chlorophenyl)-8-(6-cyano-4-methyl-3-pyridyl)-2-(2-hydroxy-2-methyl-propoxy)purin-6-yl]-4-methyl-piperidine-4-carboxamide]
23 | 13 | 6.33 | CN(CC(C)(C)O)c1nc(N2CCC(C)(C(N)=O)CC2)c2nc(-c3ccc(C#N)nc3)n(-c3ccc(Cl)cc3)c2n1 [Compound 110, 1-[9-(4-chlorophenyl)-8-(6-cyano-3-pyridyl)-2-[(2-hydroxy-2-methyl-propyl)-methyl-amino]purin-6-yl]-4-methyl-piperidine-4-carboxamide]
24 | 7.93 | 1.71 | CO[C@H]1CCN(c2nc(N3CCC(C)(C(N)=O)CC3)c3nc(-c4ccccc4Cl)n(-c4ccc(Cl)cc4)c3n2)C1 [Compound 92, 1-[8-(2-chlorophenyl)-9-(4-chlorophenyl)-2-[(3S)-3-methoxypyrrolidin-1-yl]purin-6-yl]-4-methyl-piperidine-4-carboxamide]
25 | 6.26 | 1.16 | C[C@@H](O)CNc1nc(N2CCC(C)(C(N)=O)CC2)c2nc(-c3ccccc3Cl)n(-c3ccc(Cl)cc3)c2n1 [Compound 83, 1-[8-(2-chlorophenyl)-9-(4-chlorophenyl)-2-[[(2R)-2-hydroxypropyl]amino]purin-6-yl]-4-methyl-piperidine-4-carboxamide]
26 | 4.9 | 0.896 | C[C@H](CO)Oc1nc(N2CCC(C)(C(N)=O)CC2)c2nc(-c3ccccc3Cl)n(-c3ccc(Cl)cc3)c2n1 [Compound 81, 1-[8-(2-chlorophenyl)-9-(4-chlorophenyl)-2-[(1R)-2-hydroxy-1-methyl-ethoxy]purin-6-yl]-4-methyl-piperidine-4-carboxamide]
27 | 4.49 | 0.753 | C[C@@H](CO)Oc1nc(N2CCC(C)(C(N)=O)CC2)c2nc(-c3ccccc3Cl)n(-c3ccc(Cl)cc3)c2n1 [Compound 82, 1-[8-(2-chlorophenyl)-9-(4-chlorophenyl)-2-[(1S)-2-hydroxy-1-methyl-ethoxy]purin-6-yl]-4-methyl-piperidine-4-carboxamide]
28 | 2.56 | 0.801 | CO[C@@H]1CCN(c2nc(N3CCC(C)(C(N)=O)CC3)c3nc(-c4ccccc4Cl)n(-c4ccc(Cl)cc4)c3n2)C1 [Compound 91, 1-[8-(2-chlorophenyl)-9-(4-chlorophenyl)-2-[(3R)-3-methoxypyrrolidin-1-yl]purin-6-yl]-4-methyl-piperidine-4-carboxamide]
29 | 2.41 | 0.82 | CC1(C(N)=O)CCN(c2nc(N3CC[C@H](O)C3)nc3c2nc(-c2ccccc2Cl)n3-c2ccc(Cl)cc2)CC1 [Compound 94, 1-[8-(2-chlorophenyl)-9-(4-chlorophenyl)-2-[(3S)-3-hydroxypyrrolidin-1-yl]purin-6-yl]-4-methyl-piperidine-4-carboxamide]
30 | 1.43 | 0.606 | CC1(C(N)=O)CCN(c2nc(N3CC[C@@H](O)C3)nc3c2nc(-c2ccccc2Cl)n3-c2ccc(Cl)cc2)CC1 [Compound 93, 1-[8-(2-chlorophenyl)-9-(4-chlorophenyl)-2-[(3R)-3-hydroxypyrrolidin-1-yl]purin-6-yl]-4-methyl-piperidine-4-carboxamide]
